Measured values as given in patent publication EP1247803A2, “Indolinone compounds suitable for modulation of protein kinases” (Sugen, Inc., priority 1996, dated 1998).

How the values were obtained:
MET = MET biochemical kinase assay; parameters: species or system human; concentration or dose not given beside the values
From the text: A met biochemical kinase assay may be performed for met generally as described above for other kinases by substituting that or the other kinases. In particular, ELISA plates are coated with goat anti-rabbit Fc antibodies, which are used to capture commercially available (from Santa Cruz Biotechnology) rabbit polyclonal antibodies to the cytoplasmic domain of human MET. […] The chimeric receptors, or MET, from these lysates are captured on the antibody coated plates. After washing away extraneous proteins, test compounds are added and an in vitro kinase assay is performed by addition of an appropriate kinase buffer (containing ATP, divalent metal ions, etc.). Incorporation of phosphate into the captured receptors is detected with an anti-phosphotyrosine antibody conjugate with horse radish peroxidase using TMB as a substrate for colorimetric detection.

EGFR = biological target: T1, EGFR (Homo sapiens, UniProt P00533); assay: EGFR ELISA assay (in vitro kinase activity, EGFR captured from A431 cell lysate); assay type: biochemical; parameters: concentration or dose not given beside the values
T1 construct: Add 7 ug A431 cell lysate per well (EGFR source); endogenous in cells; host or cells: A431
T1 sequence (P00533 25-1210): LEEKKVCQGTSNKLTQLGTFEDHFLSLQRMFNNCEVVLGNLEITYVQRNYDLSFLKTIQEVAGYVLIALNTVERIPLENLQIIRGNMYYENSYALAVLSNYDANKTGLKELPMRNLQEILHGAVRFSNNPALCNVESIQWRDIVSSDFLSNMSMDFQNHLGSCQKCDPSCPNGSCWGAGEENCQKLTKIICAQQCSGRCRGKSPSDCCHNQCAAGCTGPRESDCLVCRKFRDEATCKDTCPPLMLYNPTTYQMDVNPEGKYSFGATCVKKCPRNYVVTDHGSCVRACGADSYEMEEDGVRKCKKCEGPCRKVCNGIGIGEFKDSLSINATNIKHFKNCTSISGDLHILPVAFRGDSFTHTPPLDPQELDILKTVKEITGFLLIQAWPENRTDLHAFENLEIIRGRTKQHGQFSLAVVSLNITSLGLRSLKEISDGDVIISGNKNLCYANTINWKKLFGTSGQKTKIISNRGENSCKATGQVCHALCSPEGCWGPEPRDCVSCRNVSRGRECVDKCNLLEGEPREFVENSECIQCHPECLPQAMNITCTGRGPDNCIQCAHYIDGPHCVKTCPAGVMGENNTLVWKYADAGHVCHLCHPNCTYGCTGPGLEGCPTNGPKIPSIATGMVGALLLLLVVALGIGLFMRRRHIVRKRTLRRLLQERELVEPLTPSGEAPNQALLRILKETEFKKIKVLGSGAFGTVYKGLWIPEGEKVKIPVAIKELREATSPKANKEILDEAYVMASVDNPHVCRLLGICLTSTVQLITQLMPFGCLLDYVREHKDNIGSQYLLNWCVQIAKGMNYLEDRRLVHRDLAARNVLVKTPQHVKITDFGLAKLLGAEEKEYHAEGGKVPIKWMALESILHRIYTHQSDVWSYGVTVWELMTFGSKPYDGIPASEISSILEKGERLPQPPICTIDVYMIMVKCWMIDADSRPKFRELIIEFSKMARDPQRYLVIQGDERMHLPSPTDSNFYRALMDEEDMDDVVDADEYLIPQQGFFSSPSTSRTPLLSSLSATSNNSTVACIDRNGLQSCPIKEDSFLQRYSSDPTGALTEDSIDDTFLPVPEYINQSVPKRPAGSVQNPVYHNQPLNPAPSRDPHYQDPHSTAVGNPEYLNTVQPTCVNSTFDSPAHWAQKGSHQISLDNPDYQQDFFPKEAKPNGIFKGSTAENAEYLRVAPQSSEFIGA
From the text: To provide a consistent method for measuring the in vitro kinase activity of the EGFR in an Enzyme-linked immunosorbent assay (Elisa).
Scope. The following protocol describes the procedures used to analyze protein tyrosine kinase activity on the EGFR in an Elisa. The procedure also describes the protocol for the initial screening of drugs for inhibition or activation of protein tyrosine kinase activity.
Reagents and Supplies. • 1. […] 05-101 monoclonal anti-EGFR antibody (commercially available from UB1) -80° C, 1 ml aliquots • 3. […] TBST Buffer Formulation: 50 mM Tris pH 7.2 150 mM NaCl 0.1% Triton X-100 • 5. Blocking Buffer Formulation: 5% Carnation Instant Milk in PBS • 6. A431 cell lysate A431 cells are available from a variety of commercial sources and may be used lysed using conventional methods known to those skilled in the art or as described for lysis of the 3T3 cells in the EGF cellular assay described herein. -80° C, 1 ml aliquots • 7. TBS Buffer Formulation: 50 mM Tris pH 7.2 150 mM NaCl • 8. […] NUNC 96-well V bottom polypropylene plates Applied Scientific Catalog # AS-72092 • 11. EDTA Formulation: 200 mM EDTA pH 8.0 • 12. […] Goat anti-rabbit IgG peroxidase conjugate Biosource Catalog # ALI0404 • 14. ABTS Solution Formulation: 100 mM Citric Acid (anhydrous) 250 mM Na2HPO4 pH 4.0 0.5 mg/ml ABTS (2,2'-azino-bis(3-ethylbenzthiazoline-6-sulfonic acid) (Sigma Catalog # A-1888) Keep solution in dark at 4 C until ready to use • 15. Hydrogen peroxide 30% solution Fisher Catalog # H325 Store in the dark at 4 C until ready to use • 16. ABTS/H2O2 Formulation: 15 mls ABTS solution 2 ul H2O2 Prepare 5 minutes before use and room temperature • 17. 0.2 M HCL stock in H2O Procedure. • 1. Coat Corning 96-well elisa plates with 0.5 ug per well 05-101 antibody. Bring final volume to 100 ul per well with PBS. Coat plates overnight at 4° C. • 2. Remove unbound 05-101 from wells by inverting plate to remove liquid. Wash 1x with distilled H2O by filling wells Pat the plate on a paper towel to remove excess liquid. • 3. Block plates with 5% milk in PBS. 150 ul per well. Incubate plate 30 minutes while shaking on a microtiter plate shaker. • 4. Wash plate 3x with dionized water, then once with TBST • 5. Add 7 ug A431 cell lysate per well (EGFR source). Add PBS to final volume of 100 ul per well Incubate 30 minutes while shaking. • 6. Wash as described in step 4. • 7. At this point, drugs or extracts are added to the wells. Dilute drugs/extracts 1:100 (unless specified otherwise) in TBS + 10% DMSO in 96-well polypropylene plates. Add 120 ul TBS to ELISA plate containing captured EGFR. Add 13.5 ul diluted drugs/extracts to ELISA plate. […] Incubate plate 30 minutes while shaking. • 8. […] (150 ul final volume in well with 3 uM ATP/5 mM MnCl2 final concentration in well.) Incubate 5 minutes while shaking vigorously. *NOTE: It is critical that ATP/MnCl2 phosphorylates the receptor for 5 minutes only. It is best to add the ATP/MnCl2 with an 12 channel pipettor 1 row at a time leaving 20 seconds between each row so that the reaction may be stopped with EDTA exactly 5 minutes later (this depends on the number of plates being phosphorylated in one batch). Shake between each addition. • 9. After 5 minutes, to stop reaction, add 16.5 ul of 200 mM EDTA pH 8.0 for 20 mM final in well, shaking continuously between each addition. This is done using the same timing method as above. After last row has received EDTA, shake plate an additional minute. • 10. Wash 4x with deionized water, twice with TBST. • 11. Add rabbit polyclonal anti-phosphotyrosine serum. Dilute 1:3000 in TBST. Add 100 ul per well. Incubate 30-45 minutes while shaking. • 12. Wash as described above in step 4. • 13. Add BioSource anti-rabbit peroxidase conjugate antibody. Dilute 1:2000 in TBST. Add 100 ul per well. Incubate 30 minutes while shaking. • 14. Wash as described in step 4. • 15. Add 100 ul of ABTS/H2O2 solution to well. Incubate 5 to 10 minutes while shaking. Remove bubbles • 16. […]

O=C1Nc2ccc(CCCl)cc2C1=Cc1c[nH]c(=O)[nH]c1=O [10731/G08]
Met Kinase % Inhibition (MET): 19.5%
Biochem EGFR %Inhibition (EGFR): 13.3%

CNS(=O)(=O)c1ccc2c(c1)C(=Cc1cc(Cl)c(OCc3ccccc3)c(C(C)(C)C)c1)C(=O)N2 [10732/D10]
Met Kinase % Inhibition (MET): 33.1%
Biochem EGFR %Inhibition (EGFR): -16.6%

CNS(=O)(=O)c1ccc2c(c1)C(=Cc1cc(Br)c(OCc3ccccc3)c(C(C)(C)C)c1)C(=O)N2 [10732/D08]
Met Kinase % Inhibition (MET): 49.4%
Biochem EGFR %Inhibition (EGFR): -20.6%

Cc1c(Br)ccc2c1C(=CC(c1cccs1)C(F)(F)F)C(=O)N2 (stereo not drawn) [10732/C02]
Met Kinase % Inhibition (MET): 40.1%
Biochem EGFR %Inhibition (EGFR): -6.5%

COc1c(Br)cc(C=C2C(=O)Nc3ccc(Br)c(C)c32)cc1C(C)(C)C [10732/C07]
Met Kinase % Inhibition (MET): 26.5%
Biochem EGFR %Inhibition (EGFR): -28.6%

COc1ccc2[nH]cc(C=C3C(=O)Nc4ccc(CCCl)cc43)c2c1 [10731/G09]
Met Kinase % Inhibition (MET): 4.4%
Biochem EGFR %Inhibition (EGFR): 8.9%

Cc1cc2occ(C=C3C(=O)Nc4ccc(S(=O)(=O)Nc5ccc(C(F)(F)F)cc5)cc43)c(=O)c2cc1C [10731/E03]
Met Kinase % Inhibition (MET): 20.7%
Biochem EGFR %Inhibition (EGFR): 10.4%

Cc1cc2occ(C=C3C(=O)Nc4ccc(S(=O)(=O)N5CCOCC5)cc43)c(=O)c2cc1C [10731/F03]
Met Kinase % Inhibition (MET): 40.6%
Biochem EGFR %Inhibition (EGFR): 8.4%

Cc1c(Br)ccc2c1C(=Cc1cc(Br)c(OCc3ccccc3)c(C(C)(C)C)c1)C(=O)N2 [10732/C08]
Met Kinase % Inhibition (MET): 54.5%
Biochem EGFR %Inhibition (EGFR): 1.6%

Cc1ccc2occ(C=C3C(=O)Nc4ccc(S(=O)(=O)Nc5ccc(C(F)(F)F)cc5)cc43)c(=O)c2c1 [10731/E06]
Met Kinase % Inhibition (MET): 37.7%
Biochem EGFR %Inhibition (EGFR): 10.4%

COc1c(I)cc(C=C2C(=O)Nc3ccc(Br)c(C)c32)cc1C(C)(C)C [10732/C11]
Met Kinase % Inhibition (MET): 31.9%
Biochem EGFR %Inhibition (EGFR): -5.0%

C=C(C)C1CC=C(C=C2C(=O)Nc3ccc(S(=O)(=O)N4CCOCC4)cc32)CC1 (stereo not drawn) [10731/F04]
Met Kinase % Inhibition (MET): 17.0%
Biochem EGFR %Inhibition (EGFR): 5.0%

CC(C)c1ccc2occ(C=C3C(=O)Nc4ccc(S(=O)(=O)Nc5ccc(C(F)(F)F)cc5)cc43)c(=O)c2c1 [10731/E05]
Met Kinase % Inhibition (MET): 82.2%
Biochem EGFR %Inhibition (EGFR): 17.7%

O=C1Nc2ccc(S(=O)(=O)N3CCOCC3)cc2C1=Cc1c[nH]c(=O)[nH]c1=O [10731/F08]
Met Kinase % Inhibition (MET): 23.5%
Biochem EGFR %Inhibition (EGFR): 7.1%

O=C1Nc2ccc(CCCl)cc2C1=Cc1coc2ccc([N+](=O)[O-])cc2c1=O [10731/G07]
Met Kinase % Inhibition (MET): 10.9%
Biochem EGFR %Inhibition (EGFR): 0.7%

COc1c(I)cc(C=C2C(=O)Nc3ccc(I)cc32)cc1C(C)(C)C [10732/B11]
Met Kinase % Inhibition (MET): 73.7%
Biochem EGFR %Inhibition (EGFR): 9.3%

O=C1Nc2ccc(S(=O)(=O)Nc3ccc(C(F)(F)F)cc3)cc2C1=Cc1c[nH]c(=O)[nH]c1=O [10731/E08]
Met Kinase % Inhibition (MET): 59.0%
Biochem EGFR %Inhibition (EGFR): 40.1%

CNS(=O)(=O)c1ccc2c(c1)C(=Cc1ccc(OC)c(C(C)(C)C)c1)C(=O)N2 [10732/D05]
Met Kinase % Inhibition (MET): 30.2%
Biochem EGFR %Inhibition (EGFR): -36.7%

Cc1c(Br)ccc2c1C(=Cc1cc(Cl)c(OCc3ccccc3)c(C(C)(C)C)c1)C(=O)N2 [10732/C10]
Met Kinase % Inhibition (MET): 43.0%
Biochem EGFR %Inhibition (EGFR): 1.2%

C=C(C)C1CC=C(C=C2C(=O)Nc3ccc(CCCl)cc32)CC1 (stereo not drawn) [10731/G04]
Met Kinase % Inhibition (MET): 23.3%
Biochem EGFR %Inhibition (EGFR): 7.1%

Cc1c(Br)ccc2c1C(=Cc1ccc(OCc3ccccc3)c(C(C)(C)C)c1)C(=O)N2 [10732/C06]
Met Kinase % Inhibition (MET): 21.6%
Biochem EGFR %Inhibition (EGFR): -43.2%

C=C(C)C1CC=C(C=C2C(=O)Nc3ccc(S(=O)(=O)NC)cc32)CC1 (stereo not drawn) [10731/D04]
Met Kinase % Inhibition (MET): 24.5%
Biochem EGFR %Inhibition (EGFR): 15.8%

CC(C)(C)c1cc(C=C2C(=O)Nc3c(Br)cc(Br)cc32)cc(Cl)c1OCc1ccccc1 [10732/A10]
Met Kinase % Inhibition (MET): 20.3%
Biochem EGFR %Inhibition (EGFR): 6.1%

COc1c(Br)cc(C=C2C(=O)Nc3c(Br)cc(Br)cc32)cc1C(C)(C)C [10732/A07]
Met Kinase % Inhibition (MET): 26.1%
Biochem EGFR %Inhibition (EGFR): -0.3%

COc1ccc(C=C2C(=O)Nc3ccc(Br)c(C)c32)cc1C(C)(C)C [10732/C05]
Met Kinase % Inhibition (MET): 18.5%
Biochem EGFR %Inhibition (EGFR): -22.8%

CNS(=O)(=O)c1ccc2c(c1)C(=Cc1cc(Br)c(OC)c(C(C)(C)C)c1)C(=O)N2 [10732/D07]
Met Kinase % Inhibition (MET): 43.2%
Biochem EGFR %Inhibition (EGFR): -19.1%

COc1c(Cl)cc(C=C2C(=O)Nc3ccc(I)cc32)cc1C(C)(C)C [10732/B09]
Met Kinase % Inhibition (MET): 69.2%
Biochem EGFR %Inhibition (EGFR): 2.0%
